Columns and labels:
[1] = test system: B16/F1 tumor-bearing C57BL6 mice; experiment: Tissue concentration of radioiodinated benzamides in the C57BL6-B16/F1 mouse model (organ distribution and tumor accumulation); assay type: in vivo; settings: for Blood tissue concentration / Liver tissue concentration / Tumor tissue concentration: n = 3
Protocol: (§1) After synthesis and purification, the compounds according to the invention are dissolved in a physiologically compatible medium and kept ready for injection. Organ distribution and tumor accumulation experiments were performed in B16/F1 tumor-bearing C57BL6 mice, and SK-Mel-3 tumor-bearing NMRI nude mice (15-22 g).
(§2) Murine B16/F1 and human SK-Mel-3 cells were ordered from ATCC. B16/F1 cells (0.5×10^6) are washed in buffer (preferably phosphate buffer), suspended and inoculated subcutaneously into C57BL6 mice, 100 μl, in the right rear flanks. Sk-Mel-3 cells (5×10^6) are washed in buffer and then inoculated subcutaneously into NMRI mice in Matrigel® (100 μl) in the right side of the trunk. After about 8-10 days, the animals develop palpable tumors with a surface area of about 30 mm^2. The distribution studies are performed after intravenous caudal vein administration of 3.7-5.5 MBq of the substances according to the invention in 50-100 μl of volume. At certain times after administration, the animals are sacrificed, organs and tumors are removed, optionally dabbed dry, weighed and measured for radioactive content (γ measurement) in a calibrator with the corresponding isotope standard. The results are depicted as % of the injected dose (ID)/g of tissue (Table 1).

[2] = test system: thyroid gland; experiment: Thyroid gland accumulation as indication of dehalogenation in vivo
Source text: Another drawback of the most similar compounds of the prior art is that the compounds of Eisenhut et al. dehalogenate more quickly in the body than the compounds according to the invention.
The thyroid gland accumulation of BA40 and BA42, an indication of dehalogenation in vivo, is increased by a factor of 10-15 compared to the compounds according to the invention.

[3] = test system: SK-Mel-3 tumor-bearing NMRI nude mice; experiment: Tumor accumulation in the NMRI-SK-Me13 human xenograft mouse model; assay type: in vivo; settings: after 96 hours
Protocol: as §1, §2

[4] = Lipophilicity; assay type: physicochemical; settings: in words
[5] = 1 hour after intravenous administration
[6] = 6 h after intravenous administration
[7] = 24 hours after intravenous administration
[8] = 5 hours after intravenous administration

SMILES	Blood tissue concentration [1, 5]	Liver tissue concentration [1, 5]	Tumor tissue concentration [1, 5]	Blood tissue concentration [1, 6]	Liver tissue concentration [1, 6]	Tumor tissue concentration [1, 6]	Blood tissue concentration [1, 7]	Liver tissue concentration [1, 7]	Tumor tissue concentration [1, 7]	Liver concentration compared with BA42 ([1]; after 6 and 24 hours, in words)	Blood accumulation compared with the closest prior art (compound of Eisenhut et al. with NH-Ac) ([1]; in words)	Retardation in the melanoma tissue ([1]; in words)	Stability of the bonded radioisotope I-131 (dehalogenation in vivo) [2]	Blood tissue concentration [1, 8]	Liver tissue concentration [1, 8]	Tumor tissue concentration [1, 8]	also measured
CCN(CC)CCNC(=O)c1cc(I)c(NC(=O)c2ccc3c(c2)OCO3)cc1OC [BA52, Benzo[1,3]dioxole-5-carboxylic acid [4-(2-diethylamino-ethylcarbamoyl)-2-iodo-5-methoxy-phenyl]-amide]	1.46 % Injected Dose (ID)/g of Tissue	19.11 % Injected Dose (ID)/g of Tissue	14.83 % Injected Dose (ID)/g of Tissue	–	–	–	0.05 % Injected Dose (ID)/g of Tissue	0.49 % Injected Dose (ID)/g of Tissue	18.82 % Injected Dose (ID)/g of Tissue	considerably lower	considerably less	extended retardation	more stable	0.69 % Injected Dose (ID)/g of Tissue	6.53 % Injected Dose (ID)/g of Tissue	22.69 % Injected Dose (ID)/g of Tissue	Accumulation in the tumor [3]: at least 13 % of the injected dose per gram tissue; Lipophilicity compared with the prior art compounds [4]: higher lipophilicity; Blood accumulation compared with BA42 ([1]; after 6 and 24 hours, in words): considerably lower; Retention in the tumor compared with BA40 and BA42 ([1]; in words): considerably longer; Tumor concentration compared with BA40 and BA42 ([1]; in words): comparable
CCN(CC)CCNC(=O)c1cc(I)c(NC(=O)c2ccccc2)cc1OC [BA91]	1.06 % Injected Dose (ID)/g of Tissue	12.68 % Injected Dose (ID)/g of Tissue	9.68 % Injected Dose (ID)/g of Tissue	0.97 % Injected Dose (ID)/g of Tissue	3.63 % Injected Dose (ID)/g of Tissue	16.72 % Injected Dose (ID)/g of Tissue	0.22 % Injected Dose (ID)/g of Tissue	0.76 % Injected Dose (ID)/g of Tissue	13.83 % Injected Dose (ID)/g of Tissue	considerably lower	considerably less	–	more stable	–	–	–	–

Further lines, with some results ahead:

Blood tissue concentration [1, 5]	Liver tissue concentration [1, 5]	Tumor tissue concentration [1, 5]	Blood tissue concentration [1, 6]	Liver tissue concentration [1, 6]	Tumor tissue concentration [1, 6]	Blood tissue concentration [1, 7]	Liver tissue concentration [1, 7]	Tumor tissue concentration [1, 7]	Liver concentration compared with BA42 ([1]; after 6 and 24 hours, in words)	Blood accumulation compared with the closest prior art (compound of Eisenhut et al. with NH-Ac) ([1]; in words)	Retardation in the melanoma tissue ([1]; in words)	Stability of the bonded radioisotope I-131 (dehalogenation in vivo) [2]	Blood tissue concentration [1, 8]	Liver tissue concentration [1, 8]	Tumor tissue concentration [1, 8]	SMILES	also measured
1.21 % Injected Dose (ID)/g of Tissue	15.49 % Injected Dose (ID)/g of Tissue	25.51 % Injected Dose (ID)/g of Tissue	0.70 % Injected Dose (ID)/g of Tissue	4.64 % Injected Dose (ID)/g of Tissue	28.10 % Injected Dose (ID)/g of Tissue	0.07 % Injected Dose (ID)/g of Tissue	0.76 % Injected Dose (ID)/g of Tissue	31.66 % Injected Dose (ID)/g of Tissue	considerably lower	considerably less	extended retardation	more stable	–	–	–	CCN(CC)CCNC(=O)c1cc(I)c(NC(=O)c2ccc(F)cc2)cc1OC [BA100]	–
1.30 % Injected Dose (ID)/g of Tissue	13.71 % Injected Dose (ID)/g of Tissue	10.73 % Injected Dose (ID)/g of Tissue	0.82 % Injected Dose (ID)/g of Tissue	5.81 % Injected Dose (ID)/g of Tissue	21.67 % Injected Dose (ID)/g of Tissue	0.22 % Injected Dose (ID)/g of Tissue	1.18 % Injected Dose (ID)/g of Tissue	23.46 % Injected Dose (ID)/g of Tissue	considerably lower	considerably less	extended retardation	more stable	–	–	–	CCN(CC)CCNC(=O)c1cc(I)c(NC(=O)c2ccc(Cl)cc2)cc1OC [BA93]	–
1.26 % Injected Dose (ID)/g of Tissue	16.35 % Injected Dose (ID)/g of Tissue	17.45 % Injected Dose (ID)/g of Tissue	–	–	–	0.07 % Injected Dose (ID)/g of Tissue	0.75 % Injected Dose (ID)/g of Tissue	29.69 % Injected Dose (ID)/g of Tissue	considerably lower	considerably less	extended retardation	more stable	0.76 % Injected Dose (ID)/g of Tissue	8.54 % Injected Dose (ID)/g of Tissue	14.83 % Injected Dose (ID)/g of Tissue	CCN(CC)CCNC(=O)c1cc(I)c(NC(=O)c2ccc(OC)cc2)cc1OC [BA95]	–
